This note sets out measurements from patent EP4647433A1, “SHP2 INHIBITOR AND USES THEREOF” (Kanaph Therapeutics Inc., priority 2023, dated 2024).

SMILES strings stand for the structures.

As usually defined, the IC50 is the concentration at which inhibition is half-maximal. In general, Kp refers to the ratio of the level in a tissue or fluid to that in plasma or blood.

In one series the test system is phospho-ERK. Put plainly: phospho-ERK assay (AlphaLisa) in H358 cells. Type of series: cell-based. The conditions noted are these: Homo sapiens, NCI-H358, 1.5 hours incubation, read-out: pERK assay (IC50). As for the experimental part:
H358 [20,000 cell/well] was contained in 40 µL of the cell culture solution (RPMI, 10% FBS, penicillin, streptomycin) and placed on a 384-well plate. After 24 hours, the serially diluted compound according to the Examples (concentration of minimum 0.13 nM, maximum 10 µM) was contained in 10 µL of the cell culture solution, put into wells containing cells, and incubated in a cell incubator for 1.5 hours. As a positive control group, the selective SHP2 inhibitor, TNO155 (Chemietek, US; concentration ranging from 0.13 nM to 10 µM) was used.
Thereafter, phospho-ERK was labeled using an AlphaLisa system from PerkinElmer according to the manufacturer's instructions, and then fluorescence (680 nm excitation wavelength, 615 nm emission wavelength) values were measured using a Varioskan equipment from Thermo. IC50 values were obtained using Graphad's Prism from the measured values depending on the concentration.
Intracellular SHP2 activity can be confirmed by measuring the degree of phosphorylation of ERK (extracellular signal regulated kinase), which represents Ras/Raf/ERK, a downstream signal pathway of SHP2. Inhibition of ERK phosphorylation by SHP2 inhibitors was confirmed through phospho-ERK analysis, which confirmed that the SHP2 inhibitors of the present disclosure have excellent activity in inhibiting ERK phosphorylation mediated by SHP2.
(In general: In Alpha technology, singlet oxygen from a donor bead excites a nearby acceptor bead.)

The next series deals with T1, SHP2 (Homo sapiens, UniProt Q06124).
T1 construct: SHP2 (full length, diluted to 100 pM final concentration in reaction buffer, BPS bioscience, US); purchased BPS bioscience, US
T1 sequence (Q06124 1-593): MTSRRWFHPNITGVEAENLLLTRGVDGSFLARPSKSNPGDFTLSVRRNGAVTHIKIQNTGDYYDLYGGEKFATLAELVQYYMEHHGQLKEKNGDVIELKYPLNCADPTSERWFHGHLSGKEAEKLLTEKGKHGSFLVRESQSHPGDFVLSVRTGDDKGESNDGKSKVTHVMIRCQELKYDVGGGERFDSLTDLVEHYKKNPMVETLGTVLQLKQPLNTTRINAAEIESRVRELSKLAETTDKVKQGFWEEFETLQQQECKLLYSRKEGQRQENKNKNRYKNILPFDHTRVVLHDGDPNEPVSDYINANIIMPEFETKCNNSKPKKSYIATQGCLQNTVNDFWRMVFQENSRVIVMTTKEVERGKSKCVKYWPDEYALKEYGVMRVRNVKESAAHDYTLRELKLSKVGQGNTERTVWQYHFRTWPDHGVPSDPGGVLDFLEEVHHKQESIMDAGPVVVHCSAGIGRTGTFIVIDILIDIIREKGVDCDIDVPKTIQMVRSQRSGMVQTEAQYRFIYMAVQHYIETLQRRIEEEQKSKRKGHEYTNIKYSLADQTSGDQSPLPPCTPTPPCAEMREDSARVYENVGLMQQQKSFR
Put plainly: Phosphatase assay (PTPase assay, DiFMUP substrate). Type of series: biochemical. The conditions noted are these: full length SHP2 100 pM activated with SHP2 activating peptide, DiFMUP 80 µM, 2 hours; read-out: PTPase assay (IC50). Here is the method: IC50 values were measured using 6,8-difluoro-4-methylumbelliferyl phosphate (DiFMUP) as a substrate. The reaction was performed in a 384-well plate, and fluorescence measurement values were obtained using an EnVision plate reader from PerkinElmer.
SHP2 (full length, diluted to 100 pM final concentration in reaction buffer, BPS bioscience, US) was incubated with the SHP2 activating peptide in reaction buffer (60 mM HEPES (pH 7.2), 75 mM NaCl, 75 mM KCl, 1 mM EDTA, 5 mM DTT, 0.05% P-20) for 30 minutes to activate SHP2. After activation, DMSO [1% (V/V) or the compound according to the Examples (concentration ranging from 0.6 nM to 10 µM)] was added. As a positive control group, the selective SHP2 inhibitors SHP099 (6-(4-amino-4-methylpiperidin-1-yl)-3-(2,3-dichlorophenyl)pyrazin-2-amine, FOCUS bioscience, Austrailia; concentration ranging from 0.6 nM to 10 µM) and TNO155 ((3S,4S)-8-(6-amino-5-((2-amino-3-chloropyridin-4-yl)thio)pyrazin-2-yl)-3-methyl-2-oxa-8-azaspiro[4.5]decan-4-amine, Chemietek, US; concentration ranging from 0.6 nM to 10 µM) were used. [drawing 184]
DiFMUP (80 µM) was added to the reaction and incubated for a total of 2 hours to allow for the reaction to proceed. Thereafter, fluorescence (340 nm excitation, 450 nm emission) values were measured. IC50 values were obtained using Graphad's Prism from the measured values depending on the concentration.
In the phosphatase assay (PTPase assay), when an IC50 value was 100 nM or more, + was indicated, when an IC50 value was 3 nM or more and less than 100 nM, ++ was indicated, and when an IC50 value was less than 3 nM, +++ was indicated.

A further series concerns H358 cells. Put plainly: Cell viability (3D spheroid, 3D CellTiter-Glo). To be noted: Homo sapiens, NCI-H358, 120 h; H358 spheroids, 5 days treatment. The class given is cell-based. As for the experimental part: Human non-small cell lung cancer cell line H358 cells were purchased from the Korean Cell Line Bank. Cancer cell lines were cultured in the recommended RPMI-1640 medium supplemented with 10% fetal bovine serum (FBS) and 1% penicillin/streptomycin. Monolayer-cultured cancer cell lines were detached by treatment with Trypsin/EDTA, and 100 µL of cell suspension containing 4 x 10^3 cells was each dispensed into SPL3D™ Cell Floater, 96-well round plate, through cell line counting. After culturing for 72 hours to form spheroid, the cells were individually treated with the compounds according to the Examples, which had been serially diluted (minimum 1.5 nM, maximum 10 µM in concentration), and then cultured in a cell incubator for 5 days. To analyze cell viability, the cells were treated with 50 uL of 3D CellTiter-Glo, stirred for 5 minutes at 500 rpm in a plate shaker from Thermo Fisher Scientific, and incubated for 25 minutes at room temperature. Then, the luminescent values were measured using a Varioskan equipment from Thermo Fisher Scientific. IC50 values were obtained using GraphPad's Prism from the measured values depending on the concentration.
In the cell viability assay, when an IC50 value was 50 nM or more, + was indicated, when an IC50 value was 10 nM or more and less than 50 nM, ++ was indicated, and when an IC50 value was less than 10 nM, +++ was indicated.

Series [1] can be described thus: Brain-plasma Pharmacokinetics. The conditions noted are these: mouse, 20 mg/kg.
Procedure: Nine male CD-1 mice (ICR mouse) aged 6 to 9 weeks were treated with the compounds according to the Examples at a concentration of 20 mg/kg. 0.025 mL of blood and brain tissue were collected at 1 hour, 8 hours, and 24 hours post-treatment, respectively. The collected blood was placed in an EDTA-K2 tube, centrifuged at 4°C at 3,200 x g for 10 minutes, and the supernatant plasma was collected. The brain tissue samples were collected immediately after euthanizing the CD-1 mice after blood collection and performing cardiac perfusion with cold saline. After collection, the brain tissues were washed with cold saline, wiped and dried, weighed, and homogenized using a homogenization buffer (15 mM PBS (pH 7.4): MeOH = 2:1) at a ratio of 1:3 (1 g of tissue to 3 mL of buffer, dilution ratio 4). Plasma and homogenized brain tissue samples were each transferred to a polypropylene microcentrifuge tube and stored at -60°C or lower. The concentration of compounds distributed in plasma and brain tissue was analyzed using LC-MS/MS, and the distribution in brain tissue compared to plasma was calculated as follows. Brain-to-plasma ratio = AUC(0-t) brain tissue /AUC(0-t) plasma [formula]
In the Brain-plasma Pharmacokinetics assay, when a brain-to-plasma ratio value was 0.05 or more and less than 0.1, + was indicated, when a brain-to-plasma ratio value was 0.1 or more and less than 0.25, ++ was indicated, and when a brain-to-plasma ratio value was more than 0.25, +++ was indicated.

For the compound `CCn1cnc2ccc(Sc3cnc(N4CCC5(CC4)Cc4ncsc4[C@H]5N)cn3)c(Cl)c2c1=O` [Example 3, (S)-6-((5-(6-amino-4,6-dihydrospiro[cyclopenta[d]thiazole-5,4'-piperidin]-1'-yl)pyrazin-2-yl)thio)-5-chloro-3-ethylquinazolin-4(3H)-one], the IC50 in the series on phospho-ERK is below 45 nM; on SHP2 it was below 3 nM; with H358 cells, below 10 nM.

`CC(C)n1cnc2ccc(Sc3cnc(N4CCC5(CC4)Cc4ncsc4[C@H]5N)cn3)c(Cl)c2c1=O` [Example 4, (S)-6-((5-(6-amino-4,6-dihydrospiro[cyclopenta[d]thiazole-5,4'-piperidin]-1'-yl)pyrazin-2-yl)thio)-5-chloro-3-isopropylquinazolin-4(3H)-one]: the IC50 in the series on phospho-ERK is below 45 nM; at SHP2, below 3 nM; in the series on H358 cells, below 10 nM.

For `Cn1cnc2ccc(Sc3cnc(N4CCC5(CC4)Cc4ccccc4[C@H]5N)cn3)c(Cl)c2c1=O` [Example 7, (S)-6-((5-(1-amino-1,3-dihydrospiro[indene-2,4'-piperidin]-1'-yl)pyrazin-2-yl)thio)-5-chloro-3-methylquinazolin-4(3H)-one], the Kp at 24 h in series [1] (brain) fell in the range of 0.1 to 0.25. Moreover, the figures for the IC50 with phospho-ERK, at SHP2 and in the series on H358 cells were below 45 nM, below 3 nM and below 10 nM, respectively.

The compound `C[C@@H]1OCC2(CCN(c3cnc(Sc4ccc5ccn(C)c(=O)c5c4Cl)cn3)CC2)[C@@H]1N` [Example 15, 7-((5-((3S,4S)-4-amino-3-methyl-2-oxa-8-azaspiro[4.5]decan-8-yl)pyrazin-2-yl)thio)-8-chloro-2-methylisoquinolin-1(2H)-one] returned a Kp at 24 h in series [1] (male, CD-1 (ICR), brain/plasma) of 0.05 to 0.1. The IC50 at SHP2 was below 3 nM; in the series with H358 cells, 10 to 50 nM.

Take `COC(C)(C)Cn1cnc2ccc(Sc3cnc(N4CCC5(CC4)CO[C@@H](C)[C@H]5N)cn3)c(Cl)c2c1=O` [Example 18, 6-((5-((3S,4S)-4-amino-3-methyl-2-oxa-8-azaspiro[4.5]decan-8-yl)pyrazin-2-yl)thio)-5-chloro-3-(2-methoxy-2-methylpropyl)quinazolin-4(3H)-one]: the Kp at 24 h in series [1] (male, CD-1 (ICR), brain/plasma) is above 0.25. The IC50 with phospho-ERK is below 45 nM; at SHP2 it was below 3 nM; in the series with H358 cells, below 10 nM.

Compound `CC(C)(O)Cn1cnc2ccc(Sc3cnc(N4CCC5(CC4)Cc4ccccc4[C@H]5N)cn3)c(Cl)c2c1=O` [Example 25, (S)-6-((5-(1-amino-1,3-dihydrospiro[indene-2,4'-piperidin]-1'-yl)pyrazin-2-yl)thio)-5-chloro-3-(2-hydroxy-2-methylpropyl)quinazolin-4(3H)-one] came in with a Kp at 24 h in series [1] (male, CD-1 (ICR), brain/plasma) of 0.05 to 0.1. Besides, the values for the IC50 in the series with phospho-ERK, on SHP2 and in the series on H358 cells were below 45 nM, below 3 nM and below 10 nM, respectively.

On to `COC(C)(C)C(F)n1cnc2ccc(Sc3cnc(N4CCC5(CC4)CO[C@@H](C)[C@H]5N)cn3)c(Cl)c2c1=O` (stereo partly drawn) [Example 28, 6-((5-((3S,4S)-4-amino-3-methyl-2-oxa-8-azaspiro[4.5]decan-8-yl)pyrazin-2-yl)thio)-5-chloro-3-(1-fluoro-2-methoxy-2-methylpropyl)quinazolin-4(3H)-one], for which the IC50 in the series with phospho-ERK is 45 to 1500 nM; at SHP2 it was below 3 nM; with H358 cells it was 10 to 50 nM.

Compound `N[C@@H]1c2ccccc2CC12CCN(c1cnc(Sc3ccc4ncn(-c5cccnc5)c(=O)c4c3Cl)cn1)CC2` [Example 31, (S)-6-((5-(1-amino-1,3-dihydrospiro[indene-2,4'-piperidin]-1'-yl)pyrazin-2-yl)thio)-5-chloro-3-(pyridin-3-yl)quinazolin-4(3H)-one] gave a Kp at 24 h in series [1] (male, CD-1 (ICR), brain/plasma) of 0.1 to 0.25. Also, the IC50 in the series on phospho-ERK is 45 to 1500 nM; in the series with H358 cells it was below 10 nM.

As for `COC(C)(C)Cn1cnc2ccc(Sc3cnc(N4CCC5(CC4)Cc4ncsc4[C@H]5N)cn3)c(Cl)c2c1=O` [Example 32, (S)-6-((5-(6-amino-4,6-dihydrospiro[cyclopenta[d]thiazole-5,4'-piperidin]-1'-yl)pyrazin-2-yl)thio)-5-chloro-3-(2-methoxy-2-methylpropyl)quinazolin-4(3H)-one], the Kp at 24 h in series [1] (male, CD-1 (ICR), brain/plasma) is 0.1 to 0.25. For the same compound, the IC50 is below 45 nM in the series on phospho-ERK and below 10 nM in the series on H358 cells.

`COC(C)(C)Cn1cnc2ccc(Sc3cnc(N4CCC5(CC4)Cc4ccccc4[C@H]5N)nn3)c(Cl)c2c1=O` [Example 34, (S)-6-((3-(1-amino-1,3-dihydrospiro[indene-2,4'-piperidin]-1'-yl)-1,2,4-triazin-6-yl)thio)-5-chloro-3-(2-methoxy-2-methylpropyl)quinazolin-4(3H)-one] had a Kp at 24 h in series [1] (male, CD-1 (ICR), brain/plasma) of 0.1 to 0.25. Moreover, the values for the IC50 on SHP2 and in the series on H358 cells were below 3 nM and below 10 nM, respectively.

With `COC(C)Cn1c(C)nc2ccc(Sc3cnc(N4CCC5(CC4)CO[C@@H](C)[C@H]5N)cn3)c(Cl)c2c1=O` (stereo partly drawn) [Example 39, 6-((5-((3S,4S)-4-amino-3-methyl-2-oxa-8-azaspiro[4.5]decan-8-yl)pyrazin-2-yl)thio)-5-chloro-3-(2-methoxypropyl)-2-methylquinazolin-4(3H)-one], the IC50 in the series on phospho-ERK was 45 to 1500 nM; at SHP2, below 3 nM; in the series on H358 cells, 10 to 50 nM.

Take `Cn1cnc2ccc(Sc3cnc(N4CCC5(CC4)Oc4ccccc4[C@H]5N)cn3)c(Cl)c2c1=O` [Example 51, (R)-6-((5-(3-amino-3H-spiro[benzofuran-2,4'-piperidin]-1'-yl)pyrazin-2-yl)thio)-5-chloro-3-methylquinazolin-4(3H)-one]: the Kp at 24 h in series [1] (male, CD-1 (ICR), brain/plasma) was above 0.25.

Compound `N[C@@H]1c2ccccc2OC12CCN(c1cnc(Sc3ccc4ncn(-c5ccccc5)c(=O)c4c3Cl)cn1)CC2` [Example 52, (R)-6-((5-(3-amino-3H-spiro[benzofuran-2,4'-piperidin]-1'-yl)pyrazin-2-yl)thio)-5-chloro-3-phenylquinazolin-4(3H)-one] registered a Kp at 24 h in series [1] (male, CD-1 (ICR), brain/plasma) above 0.25.
